Data set [1] in a line: Solubility of L-carnitine tartrate in ethanol in relation to the water content of the ethanol (FIG. 1). It is filed as physicochemical. As to conditions: ethanol comprising less than 5% water / no or low amounts of water. The text has this: Without being bound to theory, it is assumed that the strong improvements of the inventive process are associated with the low solubility of L-carnitine tartrate in ethanol comprising no water or only low amounts of water. […] The relationship of L-carnitine tartrate solubility to the water content of ethanol is shown in the scheme of FIG. 1. […] Thereby, high yields are obtained even when avoiding extreme temperatures for heating and cooling.

For data set [2] the following is noted: cited from earlier work.

`C[N+](C)(C)C[C@H](O)CC(=O)[O-].O=C(O)C(O)C(O)C(=O)O` [L-carnitine tartrate, L-carnitine L-tartrate]: the solubility in ethanol entry in data set [1] (L-tartrate) is recorded as “decreased dramatically”; in data set [1] (listed as carnitine tartrate, L-tartrate) it was “very low”. The stability during storage result in data set [2] (normal air moisture, disclosed in EP 0 434 088 A1) is on record as “stable”.
As for `C[N+](C)(C)CC(O)CC(=O)[O-]` [L-carnitine, 3-hydroxy-4-trimethylammonio-butanoate], the solubility in ethanol result in data set [1] was “almost insoluble”. For the same compound, the hygroscopicity entry in data set [2] (pure carnitine) is “highly hygroscopic”.
